Columns and labels:
[1] = test system: liver transport system or systems inhibitable by BSP; details: cited from earlier work
[2] = rat, in vivo, 6 h; cited from earlier work
[3] = T1-weighted spin-echo, 0.5 Tesla; cited from earlier work
[4] = in vivo; cited from earlier work
[5] = In vivo MRI, % enhancement by region of interest (Example 19); design: species or system Sprague-Dawley rats
Experimental: Magnetic resonance imaging was carried out using a CSI 2-Tesla imager (GE, Inc., Fremont, Calif.) equipped with a 5-cm diameter distributed-capacitance imaging coil. A T1-weighted (TR 300/TE 6; NEX 4) spin-echo sequence was used.
Sprague-Dawley rats (250-350 g; n=4 for each contrast agent) were anesthetized with ketamine (90 mg/kg) and diazepam (10 mg/kg) and fitted with an intravenous catheter in a lateral tail vein. Anesthesia was maintained during imaging using pentobarbital delivered via an intraperitoneal catheter.
The anesthetized animal was placed in the imaging coil and secured with tape. The coil containing the animal then was placed in the magnet bore, and the magnetic field was shimmed. Pre-contrast images were obtained. The contrast agent (100 μmol/kg) then was injected via the tail-vein catheter, and additional images were obtained at various intervals for up to 90 min post injection.
Contrast agent enhancement was determined by measuring the mean signal intensity (SI) in operator-designated regions of interest (ROI). These were normalized to the pre-injection value for each ROI according to the following formula:
% Enhancement=100×(SIpost -SIpre)/SIpre

[6] = Hydrolysis of the esters in pH 7.4 HEPES buffer; type: physicochemical; details: pH 7.4, 25° C., each step
Experimental: (§1) Aliquots were withdrawn at various time intervals and examined by HPLC [PRP-1 column; water-acetonitrile gradient; 25 mM ammonium formate, pH 7 mobile phase].

[7] = type: in vitro ADME, rat
Experimental: as §1

[8] = T1-weighted spin-echo MRI of a rat, region-of-interest % enhancement (Examples 8 and 9); type: in vivo, Sprague-Dawley rat
Experimental: FIG. 5 is a photograph of T1-weighted magnetic resonance images of a rat obtained before, and at 0, 5, 10, 15, 25, 45 and 60 minutes after the injection of Gd-DTPA-bis(phenylalanine) at a dose of 0.1 mmol/kg body weight. The images are 60 mm×60 mm×3 mm thick slices in the coronal plane. The region covered extends from just above the heart to somewhat below the liver. Imaging parameters are indicated along the left of the Figure and include the repetition time ([…]), echo time (6000 microseconds), number of signal averages (4), and the image matrix size (128×256).
FIGS. 6A and 6B are photographs of T1-weighted magnetic resonance images obtained as described in FIG. 5A and 5B, except that Gd-DTPA-bis(phenylalanine ethyl ester) was used as the contrast agent.
A 300-g male Sprague-Dawley rat was anesthetized with an intraperitoneal injection of a mixture of ketamine and diazepam, and a catheter was inserted into a lateral tail vein. The rat was then placed in a 5-cm inside diameter (i.d.) imaging coil in the bore of a 2-Tesla imager-spectrometer system (GE CSI; General Electric Co., Fremont, Calif.). A T1-weighted spin-echo image of the animal's abdomen in the coronal plane was then obtained (TR 300 ms; Te 6 ms; 128-256 image matrix; NEX=4; 3 mm slice thickness). Next, 0.6 g of the Gd-DTPA-bis(phenylalanine) solution described in Example 7 was injected via the catheter. A series of post-injection images were obtained. […] See also, FIGS. 5A and 5B.
The imaging was carried out analogously to Example 8. […] See also, FIGS. 6A and 6B.

[9] = Comparative MRI of two preparations of Gd-DTPA-bis(phenylalanine ethyl ester) (Example 11); type: in vivo, mice
Experimental: FIG. 8 is a photograph of T1-weighted magnetic resonance images obtained as in FIG. 6, except that a different preparation of Gd-DTPA-bis(phenylalanine ethyl ester) (sometimes abbreviated Gd-DTPA-(PheOEt)2) was used.
Freshly prepared material, whose pH was carefully adjusted to neutrality, and which was stored in the cold, was determined to be about 90% Gd-DTPA-(PheOEt)2, the remainder being mostly Gd-DTPA-(PheOEt) (Phe).

[10] = more pure preparation (about 90% bis ester)
[11] = partially hydrolyzed material of FIG. 6 (ca. 45% bis ester)

**Q.** Which “liver transport (in words)” value [1] does the source give for O=C([O-])C(NCCNC(C(=O)[O-])c1ccccc1[O-])c1ccccc1[O-].[Fe+3] (stereo not shown) [Fe-EHPG] here?
**A.** Its value is “transported in the liver by a system or systems inhibitable by BSP”.

**Q.** For CC(=O)N([O-])CCCCCNC(=O)CCC(=O)N([O-])CCCCCNC(=O)CCC(=O)N([O-])CCCCCNC(=O)CC(CC(=O)[O-])c1ccccc1.[Fe+3].[H+] (stereo not shown) [Fe-PGDF], which “liver transport (in words)” value [1] is on record?
**A.** Its value is “transported in the liver by a system or systems inhibitable by BSP”.

**Q.** Which results are given for O=C([O-])CN(CCN(CC(=O)[O-])CC(=O)[O-])CCN(CC(=O)[O-])C(COCc1ccccc1)C(=O)[O-].[Gd+3] (stereo not shown) [Gd-BOPTA]?
**A.** biliary excretion [2]: 38.6 % of injected dose; signal enhancement in liver [3]: 48%

**Q.** What does the source list for CNC[C@H](O)[C@@H](O)[C@H](O)[C@H](O)CO.CNC[C@H](O)[C@@H](O)[C@H](O)[C@H](O)CO.O=C([O-])CN(CCN(CC(=O)[O-])CC(=O)O)CCN(CC(=O)[O-])CC(=O)O.[Gd+3] [Gd-DTPA, gadolinium (III) complex of diethylenetriaminepentaacetic acid]?
**A.** signal enhancement in liver [3]: 16%; distribution (in words) [4]: distributes in blood plasma and extracellular fluid

**Q.** Which lung enhancement ([5]; 100 μmol/kg i.v., n=4) does the source give for COc1ccc(CCNC(=O)CN(CCN(CCN(CC(=O)[O-])CC(=O)NCCc2ccc(OC)c(OC)c2)CC(=O)[O-])CC(=O)[O-])cc1OC.[Gd+3] [Gd-DTPA-(3,4-DMPE)2] here?
**A.** Its lung enhancement is 141%±4%.

**Q.** And the “enhancement of organs (in words)” value ([5]; MRI of rats)?
**A.** The value was “useful enhancement of heart, lungs, kidney and liver”.

**Q.** Which “half-time of hydrolysis in aqueous buffer” value [6] does the source give for CCOC(=O)[C@@H](Cc1ccccc1)NC(=O)CN(CCN(CCN(CC(=O)[O-])CC(=O)N[C@H](Cc1ccccc1)C(=O)OCC)CC(=O)[O-])CC(=O)[O-].[Gd+3] [Gd-DTPA-(D-PheOEt)2, Gd(III)-DTPA-bis(D-phenylalanine ethyl ester)] here?
**A.** Its value is “of the order of days”.

**Q.** And the “ester hydrolysis in rat plasma (in words)” value [7]?
**A.** Its value is “resistant to even the first step of ester hydrolysis”.

**Q.** What about the “t1/2 of ester hydrolysis in rat plasma” value [7] of the same compound?
**A.** Its value is “None Detected”.

**Q.** For CCOC(=O)[C@H](Cc1ccccc1)NC(=O)CN(CCN(CCN(CC(=O)[O-])CC(=O)N[C@@H](Cc1ccccc1)C(=O)OCC)CC(=O)[O-])CC(=O)[O-].[Gd+3] [Gd-DTPA-bis(phenylalanine ethyl ester), Gd(III)-DTPA-bis(L-phenylalanine ethyl ester)], which “image enhancement (in words)” value ([8]; 2 Tesla, about 0.1 mmol/kg) is on record?
**A.** Its value is “different apparent enhancement in the liver and heart”.

**Q.** What about the “image region-of-interest % enhancement” value ([8]; heart, 0-3 min post-injection) of the same compound?
**A.** Its value is 86%.

**Q.** What about the “image region-of-interest % enhancement” value ([8]; heart, 5-8 min post-injection) of the same compound?
**A.** Its value is 46%.

**Q.** And the “image region-of-interest % enhancement” value ([8]; heart, 15-18 min post-injection)?
**A.** The value was 66%.

**Q.** What about the “image region-of-interest % enhancement” value ([8]; heart, 25-38 min post-injection) of the same compound?
**A.** The value was 48%.

**Q.** And the “image region-of-interest % enhancement” value ([8]; heart, 45-48 min post-injection)?
**A.** The value was 49%.

**Q.** What about the “image region-of-interest % enhancement” value ([8]; heart, 60-63 min post-injection) of the same compound?
**A.** The value was 25%.

**Q.** What about the “image region-of-interest % enhancement” value ([8]; liver, 0-3 min post-injection) of the same compound?
**A.** Its value is 70%.

**Q.** What about the “image region-of-interest % enhancement” value ([8]; liver, 5-8 min post-injection) of the same compound?
**A.** The value was 109%.

**Q.** What about the “image region-of-interest % enhancement” value ([8]; liver, 15-18 min post-injection) of the same compound?
**A.** The value was 113%.

**Q.** And the “image region-of-interest % enhancement” value ([8]; liver, 25-38 min post-injection)?
**A.** Its value is 99%.

**Q.** What about the “image region-of-interest % enhancement” value ([8]; liver, 45-48 min post-injection) of the same compound?
**A.** The value was 71%.

**Q.** What about the “image region-of-interest % enhancement” value ([8]; liver, 60-63 min post-injection) of the same compound?
**A.** Its value is 44%.

**Q.** And the “image region-of-interest % enhancement” value ([8]; muscle (Table 3: skeletal muscle), 0-3 min post-injection)?
**A.** Its value is 50%.

**Q.** What about the “image region-of-interest % enhancement” value ([8]; muscle (Table 3: skeletal muscle), 5-8 min post-injection) of the same compound?
**A.** Its value is 30%.

**Q.** What about the “image region-of-interest % enhancement” value ([8]; muscle (Table 3: skeletal muscle), 15-18 min post-injection) of the same compound?
**A.** Its value is 31%.

**Q.** What about the “image region-of-interest % enhancement” value ([8]; muscle (Table 3: skeletal muscle), 25-38 min post-injection) of the same compound?
**A.** The value was 26%.

**Q.** What about the “image region-of-interest % enhancement” value ([8]; muscle (Table 3: skeletal muscle), 45-48 min post-injection) of the same compound?
**A.** Its value is 16%.

**Q.** And the “image region-of-interest % enhancement” value ([8]; muscle (Table 3: skeletal muscle), 60-63 min post-injection)?
**A.** The value was 16%.

**Q.** What about the “half-time of hydrolysis in aqueous buffer” value [6] of the same compound?
**A.** Its value is “of the order of days”.

**Q.** What about the heart enhancement [9, 10] of the same compound?
**A.** Its heart enhancement is 74%.

**Q.** And the liver enhancement [9, 10]?
**A.** The liver enhancement was 163%.

**Q.** What about the “factor by which degree of liver enhancement was greater” value ([9]; more pure preparation vs FIG. 6 material) of the same compound?
**A.** Its value is “about three”.

**Q.** And the heart enhancement [9, 11]?
**A.** Its heart enhancement is 84%.

**Q.** And the liver enhancement [9, 11]?
**A.** Its liver enhancement is 53%.

**Q.** And the “ester hydrolysis in rat plasma (in words)” value [7]?
**A.** The value was “very rapidly hydrolyzed in rat plasma”.

Reference: patent US5562894A, “Amino-acyl-type and catecholamine-type contrast agents for MRI” (Regents of the University of California, priority 1993, dated 1996)
